The subject of the assay is Banana fruit. Kind of assay: Ripening of bananas after 1-MCP dip of varied duration and ethylene exposure (Comparative Example 1). The class given is in vivo, Musa. Particulars: 20 microgram 1-MCP per liter with 0.6 ml/l NuFilm 17; for peel colour after 12 days: 12 days after exposure to ethylene. The source says:
The following Examples, the color of banana peels is rated according to a seven stage rating scale, published by Chiquita Brands International, Inc. (http://www.chiquita.com/chiquita/Discover/cbripen.asp): stage 1 (dark green); stage 2 (all light green); stage 3 (more green than yellow); stage 4 (more yellow than green); stage 5 (green tips and necks); stage 6 (all yellow; maybe light green necks, no green tips); stage 7 (yellow flecked with brown). Consumers generally prefer to eat bananas in stage 5 or stage 6.
Banana fruit with an age of 12 weeks, grown and treated in Costa Rica. The bananas were dipped (not sprayed). The solution of every 1-MCP treatment included 0.6 ml/l NuFilm 17® 96% (elastomer-forming additive, Miller Chemical and Fertilizer Co.). Control sample had no dip. Other samples were dipped in water solution in which powdered encapsulation complex of 1-MCP in alpha-cyclodextrin was added to water to give concentration of 20 microgram 1-MCP per liter. Bananas were dipped for zero time (in and out), 5 minutes, or 20 minutes.
After 1-MCP treatment, fruit were allowed to dry on racks after treatments before being repacked in the boxes. The boxes were stored at 14° C. for 7 days. The boxes were conditioned at 20-21° C. for 6 hours before being treated with a continuous stream of 100 microliter per liter ethylene in a treatment chamber at 20° C. by 24 hours. After ethylene treatment the boxes were kept at ambient conditions (20° C. and 95% RH). Bananas were inspected at 5, 7, 10, and 12 days after exposure to ethylene.
Complete randomized design was used, with 4 treatments and 2 boxes per treatment. Clusters from each treatment were evaluated every two days after ethylene treatment.

For `CC1=CC1` [Treatment 1-MCP, 1-methylcyclopropene], where the note is “dipped for 5 minutes”, the ripening result is reported as “did not ripen normally” and the “peel colour after 12 days” value was “remained green”. Also, under “dipped for 20 minutes”, the ripening result is listed as “did not ripen normally” and the “peel colour after 12 days” value is on record as “remained green”. Moreover, the “difference in ripening versus control bananas” value (dipped in and out quickly (zero time)) was “No significant difference”.

The record behind these values is patent publication US8377489B2, “Banana treatments” (Rohm and Haas Company, priority 2008, dated 2013).
